Measurements as given in patent US6548059B1, “Promotion of proliferation of adult corneal endothelial cells” (The Schepens Eye Research Institute, Inc., priority 1999, dated 2003).
Like-named read-outs stand apart in the source and are kept apart here.

How the values were obtained:
[1] = test system: corneal endothelial cells; conditions: for Avg. % KI67 (+) Cells: 24 hr pre-incubation in mitogen-containing medium, n = 2-3 donor corneas
Description: (§1) Twenty-one human corneas were obtained from donors of about 52-75 years of age (Avg.=65.1 years old). Whole corneas were usually cut in quarters to increase sample size. In some cases, whole corneas were used as controls. Corneal pieces were placed endothelial-side up in individual wells of a 24-well tissue culture plate (Falcon, Lincoln Park, N.J.). Pieces were incubated for about 24 hrs in Medium-199 containing 10% fetal bovine serum (FBS), 10 ng/ml epidermal growth factor (EGF) (Upstate Biotechnologies, Lake Placid, N.Y.), 20 ng/ml fibroblast growth factor(FGF) (pituitary-derived, Biomedical Research Technologies, Stoughton, Mass.), and […] gentamicin to stabilize the endothelium prior to study. Ethylenediamine tetraacetic acid (e.g., di-sodium EDTA.2 H2O) was prepared in Hank's Balanced Salt Solution (HBSS) without calcium chloride, magnesium chloride, or magnesium sulfate: Life Technologies, Grand Island, N.Y.), adjusted to pH7.4, and added to the culture medium at a final concentration of 0.02, 0.2, or 2.0 mg/ml. Corneas were treated with EDTA for 10, 30, or 60 min and then returned to culture medium for up to 96 hrs. Negative controls for EDTA treatment included exposing corneal pieces to all manipulations and incubation conditions, including 1 hour in HBSS, but without EDTA. All corneas were maintained at 37° C. in a 5% carbon dioxide, humidified atmosphere until removal for analysis of cell cycle progression.
Immunolocalization was carried out using the same antibodies and protocols as described previously for ZO-1 (10) and Ki67 (19). Corneal pieces stained for Ki67 were mounted in medium containing propidium iodide (PI: Vector Laboratories, Inc., Burlingame, Calif.) to visualize all nuclei. In some cases, samples were double-stained for both Ki67 and ZO-1. Slides were viewed using a Leica TCS 4D confocal microscope equipped with a Leitz DMRBE laser and SCANware 4.2 software (Leica Lasertechnik, Heidelberg, Germany). Images were collected from the central region of the corneal pieces away from the cut edges using a 16×, 40×, or 100×-oil immersion lens. Laser power and gain controls were adjusted to achieve an optimal range of output signal intensity for each channel. Confocal images were collected and micrographs were printed using Photoshop software v4.0 (Adobe Systems, Inc., San Jose, Calif.). For some micrographs, the printing contrast was adjusted to provide a clearer image.
Fluorescence confocal immunocytochemistry for Ki67 was used to evaluate corneal endothelial cells for their ability to enter and complete the cell cycle (i.e., cell proliferation or mitosis). All nuclei were stained with PI. Positive Ki67 staining patterns indicated the presence of actively cycling cells and also acted as markers for specific phases of the cell cycle. Completion of the cell cycle was determined by observation of mitotic figures stained with Ki67. Three representative confocal micrographs were taken per corneal quarter using a 40×-objective lens. An NIH Image v1.62 software program was used to count total PI-stained nuclei, total Ki67-positive cells, and cells in the G1-phase, S/G2-phase, or M-phase of the cell cycle. Cells were counted in five […] areas of each micrograph (=15 areas counted per corneal piece). Counts were averaged and the percentage of actively cycling cells and of cells in each phase of the cell cycle was calculated. Each study was conducted using corneas from 2-3 different donors. Statistical comparisons were made by a paired Student's t-test using a StatView v4.11 software program (Abacus Concepts, Inc., Berkeley, Calif.). Results reported in Table 1 were expressed as percentage of Ki67-positive cells +/−SD.

[2] = test system: corneal endothelial cell-cell contacts
Description: as §1, with “All corneas were maintained at 37° C. in a 5% carbon dioxide, humidified atmosphere until removal for analysis of cell cycle progression.” left out

`O=C(O)CN(CCN(CC(=O)O)CC(=O)O)CC(=O)O` [EDTA, ethylenediaminetetraacetic acid] was tested, and the “time to complete the cell cycle after EDTA treatment (mitotic figures)” value ([1]; 24 hours pre-incubation, 0.2 mg/ml EDTA for 60 min, single donor) was “approximately 48 hrs”, the “Avg. % KI67 (+) Cells” value ([1]; EDTA 0.2 mg/ml, 30 minutes) was 8.67% and the “Avg. % KI67 (+) Cells” value ([1]; EDTA 0.2 mg/ml, 60 minutes) was 11.99%. The “percent of the cells stimulated to proliferate” value ([1]; EDTA 2.0 mg/ml for 60 minutes, after preincubation in culture medium) was 16-18%, the “Avg. % KI67 (+) Cells” value ([1]; EDTA 2.0 mg/ml, 30 minutes) was 14.28% and the “Avg. % KI67 (+) Cells” value ([1]; EDTA 2.0 mg/ml, 60 minutes) was 17.18%. For the same molecule, the “percent of the cell population that entered the cell cycle” value ([1]; intact endothelial monolayer treated with EDTA and mitogens) was “around 17%”, the “cell cycle progression (Ki67 stained nuclei and mitotic figures)” value ([1]; pre-incubation in mitogen-containing medium, then EDTA, 48 hour post-incubation) was “did promote cell cycle progression” and the “proliferation (Ki67 staining) with EDTA alone” value ([1]; up to 2.0 mg/ml EDTA, no prior or simultaneous growth factor, post-incubated 48 hours in mitogen-containing medium) was “did not promote proliferation”. For the same molecule, the “effect on cell-cell contacts (ZO-1 staining)” value ([2]; 2.0 mg/ml EDTA for 60 minutes) was “caused cells to become rounded with only thin cytoplasmic strands connecting adjacent cells” and the “percent of treated cells with interrupted cell-contacts” value ([2]; corneal endothelial cells exposed to EDTA) was “at least 15%”.
